Measurements: patent US6897203B2, “Polysaccharidic esters of retinoic acid” (priority 2001, dated 2005)

Columns and labels:
[1] = tested on: P19 cells, embryonal pluripotent murine teratocarcinoma cell line; settings: cultured P19 cells; McBurney et al., Nature 1982; cited from earlier work
[2] = tested on: P19 cells, embryonal pluripotent murine teratocarcinoma cell line; settings: after 4 days of treatment, RT-PCR and RNase protection; for prodynorphin gene expression: P19 indifferentiated cells in suspension; for gene induction of the GATA-4 and Nkx-2.5 genes: P19 indifferentiated cells, follows the prodynorphin increase
Method: The experiments were carried out on P19 cells, embryonal pluripotent murine teratocarcinoma cell line (European Collection of Cell Cultures, UK). These cultured cells indifferentiately proliferate but can be transformed into several cell phenotypes in the presence of differentiating agents, thus selectively summarising the first molecular events that take place during the embryonal growth. […] P19 cells are cultivated in a suspension in alpha-mem medium in 60 mm Petri dishes, either in the absence or in the presence of the hyaluronan esters of the invention. After 4 days of treatment, the total RNA was extracted according to the procedure described by Chomczynsky and Sacchi (Chomczynsky, P., N. Sacchi, Anal. Biochem. 162: 156-159, 1987) and the expression of specific transcripts was evaluated by RT-PCR and RNase protection.

Molecule	differentiation phenotype of P19 cells in the presence of a differentiating agent [1]	prodynorphin gene expression [2]	gene induction of the GATA-4 and Nkx-2.5 genes [2]
CC(C=CC1=C(C)CCCC1(C)C)=CC=CC(C)=CC(=O)O [retinoic acid, 3,7-dimethyl-9-(2,6,6-trimethyl-1-cyclohexene-1-yl)-2,4,6,8-nonatetraenoic acid]	turn into neuronal cells		
Hyaluronan Ester with Trans-Retinoic Acid [Example 3]		marked increase	gene induction
Ester of Hyaluronan with Trans-Retinoic Acid [Example 4]		marked increase	gene induction
C[S+](C)[O-] [DMSO, dimethylsulphoxide]	turn into myocardial cells supplied with spontaneous contractile activity		
